From the NIST ThermoML archive (doi:10.1021/je030133a)
Several values for one entry are separate records, joined by “and”; a condition that tells them apart may be missing. Equal values may be shown once.

Assays:
[1] = 101.3 kPa, Liquid
[2] = xn = mol fraction of the nth substance listed; conditions: 101.3 kPa, Liquid

C1COCCO1 [1,4-dioxane]
[1]
Conditions | mass density [kg/m3] | viscosity
303.15 K | 1022.3 | 1.099 mPa·s and 1.098 mPa·s
308.15 K | 1016.7 | 1.03 mPa·s
313.15 K | 1012 | 0.9575 mPa·s

C1COCCO1 [1,4-dioxane] + CCCCO
[2]
Conditions | mass density, 303.15 K [kg/m3] | mass density, 308.15 K [kg/m3] | mass density, 313.15 K [kg/m3] | viscosity, 303.15 K [mPa·s] | viscosity, 308.15 K [mPa·s] | viscosity, 313.15 K [mPa·s]
x1 = 0.1066 | 826.5 | 818.4 | 816.8 | 2.011 | 1.683 | 1.522
x1 = 0.2116 | 847.6 | 839.9 | 837.9 | 1.635 | 1.362 | 1.281
x1 = 0.3151 | 868.6 | 861.3 | 859 | 1.37 | 1.165 | 1.094
x1 = 0.4171 | 889.9 | 882.7 | 880.2 | 1.243 | 1.081 | 0.9963
x1 = 0.5177 | 911.3 | 904.3 | 901.5 | 1.164 | 1.032 | 0.9565
x1 = 0.6169 | 932.8 | 926.2 | 923.1 | 1.093 | 1.007 | 0.9426
x1 = 0.6659 | 943.6 | 937.3 | 934 | 1.064 | 0.9903 | 0.9289
x1 = 0.7146 | 954.6 | 948.4 | 945.2 | 1.038 | 0.9768 | 0.919
x1 = 0.763 | 965.6 | 959.6 | 956.3 | 1.016 | 0.9543 | 0.9043
x1 = 0.8111 | 976.7 | 971 | 967.4 | 1.015 | 0.9484 | 0.9234
x1 = 0.8588 | 987.9 | 982.3 | 978.6 | 1.031 | 0.9507 | 0.9384
x1 = 0.9062 | 999.2 | 993.6 | 989.7 | 1.065 | 0.9793 | 0.9315
x1 = 1 | 1022.3 | 1016.7 | 1012 | 1.098 | 1.03 | 0.9575

C1COCCO1 [1,4-dioxane] + ClC(Cl)(Cl)Cl
[2], x1 = 1
Conditions | mass density [kg/m3] | viscosity [mPa·s]
303.15 K | 1022.3 | 1.099
308.15 K | 1016.7 | 1.03
313.15 K | 1012 | 0.9575

CCCCO [butan-1-ol]
[1]
Conditions | mass density [kg/m3] | viscosity
303.15 K | 805.7 | 2.282 mPa·s
308.15 K | 797.2 | 1.907 mPa·s and 1.895 mPa·s
313.15 K | 795.5 | 1.681 mPa·s

CCCCO [butan-1-ol] + C1COCCO1
[2], x2 = 0
Conditions | mass density [kg/m3] | viscosity [mPa·s]
303.15 K | 805.7 | 2.282
308.15 K | 797.2 | 1.895
313.15 K | 795.5 | 1.681

CCCCO [butan-1-ol] + ClC(Cl)(Cl)Cl
[2], x2 = 0
Conditions | mass density [kg/m3] | viscosity [mPa·s]
303.15 K | 805.7 | 2.282
308.15 K | 797.2 | 1.907
313.15 K | 795.5 | 1.681

ClC(Cl)(Cl)Cl [tetrachloromethane]
[1]
Conditions | mass density | viscosity
303.15 K | 1580.6 kg/m3 | 0.8689 mPa·s
308.15 K | 1575.7 kg/m3 | 0.8307 mPa·s
313.15 K | 1570.9 kg/m3 and 1571.3 kg/m3 | 0.807 mPa·s and 0.8072 mPa·s

ClC(Cl)(Cl)Cl [tetrachloromethane] + C1COCCO1
[2]
Conditions | mass density, 303.15 K [kg/m3] | mass density, 308.15 K [kg/m3] | mass density, 313.15 K [kg/m3] | viscosity, 303.15 K [mPa·s] | viscosity, 308.15 K [mPa·s] | viscosity, 313.15 K [mPa·s]
x2 = 0 | 1580.6 | 1575.7 | 1570.9 | 0.8689 | 0.8307 | 0.807
x2 = 0.1116 | 1520.6 | 1517.3 | 1513.2 | 0.945 | 0.8954 | 0.8454
x2 = 0.2204 | 1462.3 | 1458.6 | 1455.1 | 0.9938 | 0.9391 | 0.8848
x2 = 0.3265 | 1405.3 | 1401.1 | 1396.9 | 1.036 | 0.9771 | 0.9244
x2 = 0.4299 | 1349 | 1344.8 | 1340.9 | 1.073 | 1.01 | 0.9531
x2 = 0.5307 | 1294.3 | 1290.5 | 1286.9 | 1.11 | 1.044 | 0.9892
x2 = 0.6291 | 1240.9 | 1236.2 | 1232.5 | 1.136 | 1.066 | 1.008
x2 = 0.7252 | 1187.4 | 1182.4 | 1177.9 | 1.145 | 1.066 | 0.9996
x2 = 0.7724 | 1161.1 | 1155.9 | 1150.9 | 1.145 | 1.063 | 0.9971
x2 = 0.819 | 1134.4 | 1128.5 | 1123.2 | 1.139 | 1.058 | 0.9881
x2 = 0.865 | 1107.7 | 1101.6 | 1096 | 1.131 | 1.052 | 0.9836
x2 = 0.9105 | 1081 | 1074.7 | 1069.2 | 1.123 | 1.05 | 0.9785
x2 = 0.9555 | 1052.6 | 1046.5 | 1041.2 | 1.117 | 1.046 | 0.9667

ClC(Cl)(Cl)Cl [tetrachloromethane] + CCCCO
[2]
Conditions | mass density, 303.15 K [kg/m3] | mass density, 308.15 K [kg/m3] | mass density, 313.15 K [kg/m3] | viscosity, 303.15 K [mPa·s] | viscosity, 308.15 K [mPa·s] | viscosity, 313.15 K [mPa·s]
x1 = 0.0954 | 885 | 876 | 873.9 | 2.028 | 1.698 | 1.498
x1 = 0.1918 | 964.8 | 955.5 | 953 | 1.708 | 1.444 | 1.293
x1 = 0.2891 | 1044.5 | 1034.7 | 1031.7 | 1.496 | 1.276 | 1.172
x1 = 0.3875 | 1123.5 | 1113.8 | 1110.1 | 1.356 | 1.157 | 1.069
x1 = 0.4869 | 1201.2 | 1191.8 | 1187.6 | 1.248 | 1.096 | 1.038
x1 = 0.5874 | 1277.3 | 1268.5 | 1264.2 | 1.157 | 1.052 | 0.9981
x1 = 0.6889 | 1352.2 | 1344.8 | 1340.9 | 1.069 | 1.004 | 0.9502
x1 = 0.7401 | 1389.9 | 1382.7 | 1378.8 | 1.025 | 0.9705 | 0.9211
x1 = 0.7915 | 1427.1 | 1420.2 | 1415.9 | 1.005 | 0.9552 | 0.8947
x1 = 0.8432 | 1463.6 | 1457.8 | 1454.2 | 0.9778 | 0.9211 | 0.8727
x1 = 0.8952 | 1501.2 | 1495.7 | 1491.8 | 0.9554 | 0.8975 | 0.8612
x1 = 0.9475 | 1538.9 | 1534.3 | 1530.5 | 0.9164 | 0.8787 | 0.8346
x1 = 1 | 1580.6 | 1575.7 | 1571.3 | 0.8689 | 0.8307 | 0.8072
